Assay results published in patent publication US7871794B2, “Enhanced cell-free synthesis of active proteins containing disulfide bonds” (The Board of Trustees of the Leland Stanford Junior …, priority 2007, dated 2011).

Key:
reduction of GSSG = assay: Assay for the reduction of oxidized glutathione in PANOx-SP cell-free reactions; format: biochemical, E. coli
Procedure: For determining the effect of pH and IAM concentration on GSSG stabilization, the pH of S30 extracts was adjusted by first adding a small volume of 10 M KOH or HCl to the bottom of an Eppendorf tube. A much larger volume of S30 extract was then rapidly mixed with the small volume of acid or base. The pH was measured with a standardized micro-pH probe (Model 9810BN, Orion, Beverly, Mass.). Several 15 μL PANOx-SP reactions supplemented with 5 mM GSSG and the pK7CAT plasmid were prepared at each pH and IAM concentration. Single reactions were terminated at 15, 38, 60, 90, 120, and 180 minutes for each condition, and the concentration of SH groups was measured as described below.
Assay for the Reduction of Oxidized Glutathione. The reduction of oxidized glutathione was measured by monitoring the increase in concentration of sulfhydryl groups over time. The entire 15 μL in vitro synthesis reaction was diluted with an equal volume of 10% trichloroacetic acid and centrifuged for 10 minutes at 12,000×g and 4° C. Ten microliters of the supernatant was added to wells of a 96-well microtiter plate. To each well, 90 μL of 1 M Tris-HCl (pH 7.8) with 0.44 mg/mL DTNB (5,5′-dithiobis-2-nitrobenzoic acid, TCI America) was added. After 3 minutes at room temperature, the absorbance at 412 nm was measured and the concentration of free thiols determined by comparison to a standard curve determined with GSH solutions of known concentration.

[1] = target: T1, thioredoxin reductase (TrxB) (Escherichia coli, UniProt P0A9P4); assay: Assay for thioredoxin reductase activity after IAM treatment at various pHs; format: biochemical, E. coli; conditions: 7 mM IAM, 30 minutes at room temperature
T1 construct: made in house; host or cells: cell-free (in vitro) synthesis reaction, E. coli extract
T1 sequence (P0A9P4 whole entry): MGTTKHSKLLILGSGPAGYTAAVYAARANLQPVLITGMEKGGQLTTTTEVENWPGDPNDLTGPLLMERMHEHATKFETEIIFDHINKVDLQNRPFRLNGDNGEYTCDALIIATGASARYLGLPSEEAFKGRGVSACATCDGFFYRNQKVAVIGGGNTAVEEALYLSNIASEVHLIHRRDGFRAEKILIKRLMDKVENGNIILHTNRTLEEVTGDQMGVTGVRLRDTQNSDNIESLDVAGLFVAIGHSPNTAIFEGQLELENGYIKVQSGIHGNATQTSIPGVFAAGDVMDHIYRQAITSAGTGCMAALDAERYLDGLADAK
Procedure: Assay for Thioredoxin Reductase Activity. Thioredoxin reductase was produced in in vitro synthesis reactions as described previously (Knapp and Swartz (2004) FEBS Lett 559:66-70). The pHs of aliquots of the unpurified reaction product were adjusted to the desired values with small volumes of concentrated KOH or HCl. These aliquots were then mixed with a small volume of IAM concentrate to obtain a final IAM concentration of 7 mM. These samples were incubated at room temperature for 30 minutes, and then the thioredoxin reductase activity of the samples was measured. The activity assay for thioredoxin reductase contained the following components: 50 mM NaH2PO4 pH 7.6, 1.5 mM EDTA, 10 mM glucose 6-phosphate, 200 μM DTNB, 300 μM NADPH, 3 μM E. coli thioredoxin (EMD Biosciences; Darmstadt, Germany), and 0.2 U glucose 6-phosphate dehydrogenase (Sigma). Approximately 500 ng of thioredoxin reductase was added to 1 mL of the assay mixture and the rate of increase in absorbance at 412 nm was measured for 90 seconds at 37° C. DTNB produces two molecules of nitrothiobenzoate when it is reduced. The extinction coefficient of nitrothiobenzoate (13,600 M^−1 cm^−1) was used to calculate the rate of reaction.

SMILES: NC(=O)CI [IAM, iodoacetamide]
- effect on sulfhydryl groups at IAM concentrations greater than 50 μM (reduction of GSSG; KGK10 extract): slow rate of oxidation of sulfhydryls
- IAM concentration sufficient to eliminate the reduction of GSSG (reduction of GSSG; KGK10 extract, IAM treatment near physiological pH): 50 µM
- IAM needed to stabilize the oxidized glutathione buffer, KGK10 extract versus KC6 extract (reduction of GSSG; in vitro synthesis reactions containing 5 mM GSSG): Twenty-fold less
- pH at which IAM inactivation of TrxB begins to lose its effectiveness [1]: ~5.8
